Reference: patent publication US20040157930A1, “Histone deacetylase enzyme-inhibiting derivatives of hydroxamic acid as new cytokine synthesis-inhibiting anti-inflammatory drugs” (priority 2001, published 2004)

System: IFNγ
Assay: IFNγ synthesis by PBMCs stimulated with IL-12 and IL-18 (ELISA)
Type: cell-based
Details: Homo sapiens; PBMC, IL-12 10 ng/ml + IL-18 20 ng/ml, 48 h; read-out: IFNγ (from IL-12 + IL-18) IC50
Method: Cytokine IFNγ is produced by the T lymphocytes following their stimulation by pro-inflammatory cytokines, especially IL-12 and IL-18 (Dinarello C. A. and Moldawer L. L. Proinflammatory and anti-inflammatory cytokines in rheumatoid arthritis. A primer for clinicians. 2nd Edition, Amgen Inc., 2000).
At the end, the cells were stimulated for 48 hours in the presence of the compound by simultaneous addition of recombinant IL-12 (10 ng/ml) and recombinant IL-18 (20 ng/ml). The quantity of IFNγ produced was determined with a commercial ELISA assay.

**Q.** For O=C(CCCCCCC(=O)Nc1ccccc1)NO [SAHA, suberoylanilide hydroxamic acid], which IC50 is on record?
**A.** 740 nM
